Results: ChEMBL document CHEMBL3102719, “Ligands of the neuropeptide Y Y2 receptor” (Bioorg Med Chem Lett, 2014)
Non-standard residues stand in square brackets, D forms with d. Residues, ends and D or L forms follow the SMILES beside them. *: point of attachment. Palmitoyl = CCCCCCCCCCCCCCCC(=O)*; Ahx = NCCCCCC(=O)O

What was measured:
[1] = molecular target: Kappa-type opioid receptor (Homo sapiens, UniProt P41145); assay: Binding affinity to kappa opioid receptor (unknown origin)
Mu-type opioid receptor = Mu-type opioid receptor (Homo sapiens, UniProt P35372); assay: Binding affinity to mu opioid receptor (unknown origin)
[2] = molecular target: T1, Alpha-1A adrenergic receptor (Homo sapiens, UniProt P35348); assay: Binding affinity to adrenergic alpha1A receptor (unknown origin)
T1 sequence (P35348 whole entry): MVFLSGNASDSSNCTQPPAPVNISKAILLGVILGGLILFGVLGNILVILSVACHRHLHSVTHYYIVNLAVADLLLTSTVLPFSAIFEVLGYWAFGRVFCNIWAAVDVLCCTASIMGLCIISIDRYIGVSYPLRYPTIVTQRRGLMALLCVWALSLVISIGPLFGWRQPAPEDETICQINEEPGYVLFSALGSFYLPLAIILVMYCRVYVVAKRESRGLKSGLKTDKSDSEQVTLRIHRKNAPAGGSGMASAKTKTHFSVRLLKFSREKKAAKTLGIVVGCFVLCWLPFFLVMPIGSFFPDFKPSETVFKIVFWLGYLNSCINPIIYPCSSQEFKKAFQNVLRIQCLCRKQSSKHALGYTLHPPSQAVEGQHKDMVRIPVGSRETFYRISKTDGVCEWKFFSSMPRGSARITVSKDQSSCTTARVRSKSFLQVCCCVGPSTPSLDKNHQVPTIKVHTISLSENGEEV

[3] = molecular target: T2, Neuropeptide Y receptor type 2 (Homo sapiens) (UniProt P49146); assay: Antagonist activity at NPYY2 receptor (unknown origin)
T2 sequence (whole entry): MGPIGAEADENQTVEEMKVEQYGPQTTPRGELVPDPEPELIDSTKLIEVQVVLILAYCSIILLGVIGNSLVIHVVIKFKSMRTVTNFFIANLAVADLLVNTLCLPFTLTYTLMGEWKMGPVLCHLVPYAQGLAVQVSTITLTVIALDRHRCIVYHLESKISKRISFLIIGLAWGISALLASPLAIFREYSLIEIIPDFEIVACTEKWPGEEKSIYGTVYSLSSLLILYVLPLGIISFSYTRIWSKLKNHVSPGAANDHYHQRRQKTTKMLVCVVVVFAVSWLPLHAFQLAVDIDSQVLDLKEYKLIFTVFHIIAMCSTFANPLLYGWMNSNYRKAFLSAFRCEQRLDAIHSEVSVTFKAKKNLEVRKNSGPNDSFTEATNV

[4] = molecular target: T3, Neuropeptide Y receptor type 2 (Homo sapiens, UniProt P49146); assay: Displacement of [125I]-PYY from human NPYY2 receptor
T3 sequence (P49146 whole entry): T2 sequence (whole entry)

Mus musculus = assay: Anticonvulsant activity in ip dosed mouse assessed as protection against 6 Hz psychomotor seizure; format: functional
[5] = molecular target: T3, Neuropeptide Y receptor type 2; assay: Binding affinity to NPYY2 receptor (unknown origin)
[6] = molecular target: T3, Neuropeptide Y receptor type 2; assay: Displacement of [125I]-PYY from NPYY2 receptor (unknown origin)
[7] = molecular target: T3, Neuropeptide Y receptor type 2; assay: Binding affinity to NPYY2 receptor (unknown origin) preincubated for 20 mins
Homo sapiens [8] = species: Homo sapiens; assay: Selectivity ratio of NPYY4 receptor (unknown origin) to NPYY2 receptor (unknown origin)
Homo sapiens [9] = species: Homo sapiens; assay: Selectivity ratio of NPYY5 receptor (unknown origin) to NPYY2 receptor (unknown origin)
[10] = Cmax in rat at 10 mg/kg, sc; format: ADME, organism-based; set-up: dose 10 mg/kg, route subcutaneous; details: in vivo
[11] = Half life in rat at 10 mg/kg, sc; format: ADME, organism-based; set-up: dose 10 mg/kg, route subcutaneous; details: in vivo
[12] = Oral bioavailability in rat at 10 mg/kg; format: ADME, organism-based; details: in vivo
Homo sapiens [13] = species: Homo sapiens; assay: Selectivity ratio of NPYY1 receptor (unknown origin) to NPYY2 receptor (unknown origin)
[14] = Bioavailability in rat at 10 mg/kg, sc; format: ADME, organism-based; details: in vivo
[15] = molecular target: T4, Neuropeptide Y receptor type 5 (Homo sapiens, UniProt Q15761); assay: Binding affinity to NPYY5 receptor (unknown origin)
T4 sequence (Q15761 whole entry): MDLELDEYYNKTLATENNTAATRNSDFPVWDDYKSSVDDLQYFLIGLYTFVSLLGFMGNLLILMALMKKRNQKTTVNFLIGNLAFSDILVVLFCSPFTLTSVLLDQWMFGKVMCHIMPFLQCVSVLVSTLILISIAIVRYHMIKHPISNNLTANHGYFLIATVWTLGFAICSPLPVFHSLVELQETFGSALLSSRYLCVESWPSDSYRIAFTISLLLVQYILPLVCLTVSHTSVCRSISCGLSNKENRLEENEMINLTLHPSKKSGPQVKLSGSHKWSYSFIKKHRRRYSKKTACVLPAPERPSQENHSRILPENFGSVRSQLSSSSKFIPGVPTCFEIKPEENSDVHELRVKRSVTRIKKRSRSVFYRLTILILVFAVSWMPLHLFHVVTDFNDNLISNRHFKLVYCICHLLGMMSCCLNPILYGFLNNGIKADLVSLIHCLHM

Mu-type opioid receptor, sequence (P35372 whole entry): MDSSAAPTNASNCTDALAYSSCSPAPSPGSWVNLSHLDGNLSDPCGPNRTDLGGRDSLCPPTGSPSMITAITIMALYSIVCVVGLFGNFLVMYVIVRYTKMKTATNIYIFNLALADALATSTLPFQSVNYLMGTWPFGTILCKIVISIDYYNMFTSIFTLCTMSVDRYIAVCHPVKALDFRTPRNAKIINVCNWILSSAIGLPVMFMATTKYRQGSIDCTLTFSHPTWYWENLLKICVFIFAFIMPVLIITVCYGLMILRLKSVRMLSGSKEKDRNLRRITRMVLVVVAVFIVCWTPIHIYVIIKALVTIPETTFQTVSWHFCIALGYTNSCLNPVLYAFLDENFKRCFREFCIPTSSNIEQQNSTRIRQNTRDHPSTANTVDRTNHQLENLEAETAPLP
Kappa-type opioid receptor, sequence (P41145 whole entry): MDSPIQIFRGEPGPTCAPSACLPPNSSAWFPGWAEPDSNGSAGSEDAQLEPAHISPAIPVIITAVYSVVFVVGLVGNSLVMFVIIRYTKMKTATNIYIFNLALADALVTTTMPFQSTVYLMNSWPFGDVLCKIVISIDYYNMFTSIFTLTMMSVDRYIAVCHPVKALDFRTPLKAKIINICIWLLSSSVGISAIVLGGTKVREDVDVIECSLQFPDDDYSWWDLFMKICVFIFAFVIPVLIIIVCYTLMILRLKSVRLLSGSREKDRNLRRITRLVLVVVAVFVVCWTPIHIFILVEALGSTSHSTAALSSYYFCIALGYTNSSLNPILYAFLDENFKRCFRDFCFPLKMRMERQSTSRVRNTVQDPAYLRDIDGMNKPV

Molecule: N=C(N)NCCCC(NC(=O)CC1(CC(=O)N2CCN(C3c4ccccc4NC(=O)c4ccccc43)CC2)CCCC1)C(=O)NCCn1c(=O)n(-c2ccccc2)n(-c2ccccc2)c1=O (single isomer, unassigned)
- Ki [1]: 948 nM
- Ki (Mu-type opioid receptor): 323 nM
- Ki [2]: 360 nM

Molecule: CCC(CC)C(=O)Nc1ccc(N2CCN(C(c3ccccc3)c3cc(C)no3)CC2)c(F)c1 (stereo not given)
- pKb [3]: 7.5
- IC50 [4]: 38 nM

Molecule: CCC(CC)C(=O)Nc1ccc(N2CCN(C(c3ccccc3)c3ncno3)CC2)c(F)c1 (stereo not given)
- IC50 [4]: 240 nM

Molecule: CCN(CC)C(=O)C(c1ccccc1)C1CCN(c2ccc(NC(=O)C3CCOC3)cc2F)CC1 (stereo not given)
- IC50 [4]: 25 nM

Molecule: CCN(CC)C(=O)C(c1ccccc1)N1CCN(c2ccc(NC(=O)c3c(C)cnn3C(C)(C)C)cc2F)CC1 (stereo not given)
- IC50 [4]: 300 nM

Molecule: CCCCCCCCCCCCCCCC(=O)NCCCC[C@H](NC(=O)[C@H](CCCCN)NC(=O)[C@H](CCCCN)NC(=O)[C@H](Cc1ccc(O)cc1)NC(C)=O)C(=O)NCCCCCC(=O)N[C@@H](C)C(=O)N[C@@H](CCCNC(=N)N)C(=O)N[C@@H](Cc1cnc[nH]1)C(=O)N[C@@H](Cc1ccc(O)cc1)C(=O)N[C@H](C(=O)N[C@@H](CC(N)=O)C(=O)N[C@@H](CC(C)C)C(=O)N[C@H](C(=O)N[C@H](C(=O)N[C@@H](CCCNC(=N)N)C(=O)N[C@@H](CCC(N)=O)C(=O)N[C@@H](CCCNC(=N)N)C(=O)N[C@@H](Cc1ccc(O)cc1)C(N)=O)[C@@H](C)O)[C@@H](C)CC)[C@@H](C)CC (Ac-YKKK(Palmitoyl)[Ahx]ARHYINLITRQRY-NH2)
- ED50 (Mus musculus): 1.1 mg/kg

Molecule: CCCCCCCCCCCCCCCC(=O)NCCCC[C@H](NC(=O)[C@H](CCCCN)NC(=O)[C@H](CCCCN)NC(=O)[C@H](Cc1ccc(O)cc1)NC(C)=O)C(=O)NCCCCCC(=O)N[C@@H](C)C(=O)N[C@@H](CCCN=C(N)N)C(=O)N[C@@H](Cc1cnc[nH]1)C(=O)N[C@@H](Cc1ccc(O)cc1)C(=O)N[C@H](C(=O)N[C@@H](CC(N)=O)C(=O)N[C@@H](CC(C)C)C(=O)N[C@H](C(=O)N[C@H](C(=O)N[C@@H](CCCN=C(N)N)C(=O)N[C@@H](CCC(N)=O)C(=O)N[C@@H](CCCN=C(N)N)C(=O)N[C@@H](Cc1ccc(O)cc1)C(N)=O)[C@@H](C)O)[C@@H](C)CC)[C@@H](C)CC (Ac-YKKK(Palmitoyl)[Ahx]ARHYINLITRQRY-NH2)
- Ki [5]: 26.1 nM

Molecule: CCc1noc(C(c2ccccc2)N2CCN(c3ccc(NC(=O)C(CC)CC)cc3F)CC2)n1 (stereo not given)
- pKb [3]: 7.45

Molecule: CN(C)CCCN(C(=O)c1cc2ccccc2s1)c1ccccc1Cc1ccccc1
- IC50 [6]: 450 nM

Molecule: CCC(CC)C(=O)Nc1ccc(N2CCN(C(c3ccccc3)c3nc(C(C)C)no3)CC2)c(F)c1 (stereo not given)
- IC50 [4]: 170 nM

Molecule: CCC(CC)C(=O)Nc1ccc(N2CCN(C(C(=O)N(CC)CC)c3ccc(O)cc3)CC2)c(F)c1 (stereo not given)
- IC50 [4]: 100 nM

Molecule: CCN(CC)C(=O)C(c1ccccc1)N1CCN(c2ccc(-c3cc(=O)n(C(C)C)[nH]3)cc2F)CC1 (stereo not given)
- IC50 [4]: 340 nM

Molecule: CCN(CC)C(=O)C(c1ccccc1)N1CCN(c2ccc(NC(=O)c3c(C)cnn3CC)cc2F)CC1 (stereo not given)
- IC50 [4]: 35 nM

Molecule: CCN(CC)C(=O)C(c1ccccc1)N1CCN(c2ccc(-c3cccnc3)cc2F)CC1 (stereo not given)
- IC50 [4]: 740 nM

Molecule: CCC(CC)C(=O)Nc1ccc(N2CCN(C(c3ccccc3)c3ncccn3)CC2)c(F)c1 (stereo not given)
- IC50 [4]: 33 nM

Molecule: CN(C)CCCN(C(=O)[C@H]1C[C@@H]1c1ccccc1)c1ccccc1SCc1ccccc1 (relative stereo)
- IC50 [6]: 3700 nM

Molecule: CCC(CC)C(=O)Nc1ccc(N2CCN(C(C(=O)N(CC)CC)c3ccc(Cl)cc3)CC2)c(F)c1 (stereo not given)
- IC50 [4]: 100 nM

Molecule: CCC(CC)C(=O)Nc1ccc(N2CCN(C(c3ccccc3)c3nc(C)no3)CC2)c(F)c1 (stereo not given)
- pKb [3]: 7.4

Molecule: CCC(=O)NCCNC(=O)CCCC(=O)NC(=N)NCCC[C@H](NC(=O)CC1(CC(=O)N2CCN(C3c4ccccc4NC(=O)c4ccccc43)CC2)CCCC1)C(=O)NCCn1c(=O)n(-c2ccccc2)n(-c2ccccc2)c1=O (stereo not given in full)
- Ki [7]: 9.9 nM

Molecule: CCN(CC)C(=O)C(c1ccccc1)N1CCN(c2ccc(NC(=O)c3ccccc3-c3cccnc3)cc2F)CC1 (stereo not given)
- Selectivity ratio (Homo sapiens [8]): > 100
- Selectivity ratio (Homo sapiens [9]): > 100
- Cmax [10]: 4.35 µM
- pKb [3]: 8.04
- half-life [11]: 49.8 min
- bioavailability [12]: 6%
- Selectivity ratio (Homo sapiens [13]): > 100
- bioavailability [14]: 100%

Molecule: CC(=O)N1CCc2ccc(N(C/C=C\c3ccccc3)C3CCN(Cc4ccccc4)CC3)cc21
- IC50 [4]: 22000 nM

Molecule: Ac-LRHYLNLLTRQRY-NH2
- Ki [15]: > 1000 nM

Molecule: CCC(CC)C(=O)Nc1ccc(N2CCN(C(c3ccccc3)c3nnc(C(C)C)o3)CC2)c(F)c1 (stereo not given)
- IC50 [4]: 290 nM

Molecule: CCc1nc(C(c2ccccc2)N2CCN(c3ccc(NC(=O)C(CC)CC)cc3F)CC2)no1 (stereo not given)
- IC50 [4]: 150 nM

Molecule: CCC(CC)C(=O)Nc1ccc(N2CCN(C(c3ccccc3)c3nc(-c4ccccc4)no3)CC2)c(F)c1 (stereo not given)
- IC50 [4]: 720 nM

Molecule: CCN(CC)C(=O)C(c1ccccc1)N1CCN(c2ccc(-c3c(C)noc3C)cc2F)CC1 (stereo not given)
- IC50 [4]: 10000 nM

Molecule: CC(=O)N1CCc2ccc(N(CC#Cc3ccccc3)C3CCN(Cc4ccccc4)CC3)cc21
- IC50 [4]: 9200 nM

Molecule: CCC(CC)C(=O)Nc1ccc(N2CCN(C(c3cccc(F)c3)c3ncco3)CC2)c(C#N)c1 (stereo not given)
- pKb [3]: 7.9

Molecule: CCC(CC)C(=O)Nc1ccc(N2CCN(C(c3ccccc3)C3CCOC3)CC2)c(F)c1 (stereo not given)
- pKb [3]: 7.2
- IC50 [4]: 34 nM
